Laboratory results reported in patent US10858365B2, “Triazolo-pyrimidine compounds and uses thereof” (Dizal (Jiangsu) Pharmaceutical Co., Ltd., priority 2018, dated 2020).

How the values were obtained:
hA2a [1] = target: T1, hA2a (Homo sapiens (Human), UniProt P29274); assay: Radioligand binding to hA2a membrane ([3H]-CGS21680); details: [3H]-CGS21680, 90 min at 25° C., read-out: Binding Affinity (IC50 nM) hA2a
Experimental: (§1) Binding affinity and specificities of the compounds against different subtype of human adenosine receptors (hA1, hA2A, hA2B and hA3) were characterized with cell membrane chromatography binding analysis.
(§2) The compounds at different concentrations were incubate with hA2a membrane (from PerkinElmer) and [^3H]-CGS21680 for 90 min at 25° C., meanwhile 100 μL 0.5% PEI solution was added into […]-96 GF/B filter plate for 60 min at 4° C., then […]-96 GF/B filter plate was washed twice with 50 ml wash buffer, the membrane mix was transferred into […]-96 GF/B filter plate, and the filter plate was washed 4 times before incubated at 55° C. for 10 min. At last, […] ULTIMA GOLD was added into each well, and CPM was read by TopCount.
(§3) The empty boxes in the tables below indicate data not available.

hA1 [2] = target: T2, hA1 (Homo sapiens (Human), UniProt P30542); assay: Radioligand binding to hA1 membrane ([3H]-DPCPX); details: 50 min at 25° C., read-out: Binding Affinity (IC50 nM) hA1
Experimental: as §1
as §2, with “hA1” for “hA2a”, “[^3H]-8-Cyclopentyl-1,3-dipropylxanthine (DPCPX)” for “[^3H]-CGS21680”, “50” for “90”
as §3

hA2b [3] = target: T3, hA2b (Homo sapiens (Human), UniProt P29275); assay: Radioligand binding to hA2b membrane ([3H]-DPCPX); details: 60 min at 27° C., read-out: Binding Affinity (IC50 nM) hA2b
Experimental: as §1
(§4) The compounds at different concentrations were incubate with hA2b membrane (from PerkinElmer) and [^3H]-DPCPX for 60 min at 27° C., and the binding reactions were stopped by rapid filtration through 0.5% BSA coated […]-96 GF/C plates using cell harvester. The filter plates were then washed three times with ice cold wash buffer, and dried at 37° C. for 120 min. At last, 50 µL of scintillation cocktail was added into each well, and CPM was read by TopCount.
as §3

hA3 [4] = target: T4, hA3 (Homo sapiens (Human), UniProt P0DMS8); assay: Radioligand binding to hA3 membrane (AB-MECA radioligand); details: 60 min at 27° C., read-out: Binding Affinity (IC50 nM) hA3
Experimental: as §1
as §4, with “hA3” for “hA2b”, “[…]” for “[^3H]-DPCPX”, “C.,” for “C., and”, “0.50%” for “0.5%”
as §3

hA2a [5] = target: T1, hA2a; assay: cAMP inhibition assay in hA2a/CHO cells; format: cell-based; details: adenosine stimulation, read-out: cAMP & FLIPR IC50 (nM) hA2a
How it was run: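 CHO cells expressing human A2a, human A2b or mouse A2a, 5×10^3 cells/well, pre-incubated with compound 30 min at 37 °C, then stimulated with […] adenosine 30 min at 37 °C. cAMP read after 60 min room-temperature incubation with detection reagent.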

hA2b [6] = target: T3, hA2b; assay: cAMP inhibition assay in hA2b/CHO cells; format: cell-based; details: adenosine stimulation, read-out: cAMP & FLIPR IC50 (nM) hA2b
Experimental: (§5) hA2a/CHO, hA2b/CHO and mA2a/CHO (Genscript) were plated at 5×10^3 cells/well into 384-well polystyrene plates at the day of experiment. Compounds were pre-incubated with cells for 30 min at 37° C., 5% CO2. Then […] adenosine was added to the cells and incubated for 30 min at 37° C., 5% CO2. Detection reagent (CISBIO) was added and the plates were incubated for 60 min at room temperature. The signal was captured by Envision.

mA2a = mA2a (Mus musculus (Mouse), UniProt Q60613); assay: cAMP inhibition assay in mA2a/CHO cells; format: cell-based; details: adenosine stimulation, read-out: cAMP & FLIPR IC50 (nM) mA2a
Experimental: as §5

hA1 [7] = target: T2, hA1; assay: FLIPR inhibition assay in hADORA1/CHO (hA1 expressing) cells; format: cell-based; details: hADORA1/CHO cells, FLIPR calcium, adenosine stimulation; read-out: cAMP & FLIPR IC50 (nM) hA1
How it was run: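 CHO cells expressing human A1 were plated at 1×10^4 cells/well the day before, then loaded with FLIPR Calcium 5 dye for 60 min at 37 °C, 5% CO2. Compounds were added at several concentrations for 400 s before stimulation with […] adenosine. The calcium signal was recorded by FLIPR.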

hA3 [8] = target: T4, hA3; assay: cAMP & FLIPR inhibition, hA3 over-expressing cell line; format: cell-based
From the text: FLIPR™ and cAMP inhibition activities of exemplary compounds in different adenosine receptor over-expressing cell lines are shown in Table 4 below.

T4 sequence (P0DMS8 whole entry): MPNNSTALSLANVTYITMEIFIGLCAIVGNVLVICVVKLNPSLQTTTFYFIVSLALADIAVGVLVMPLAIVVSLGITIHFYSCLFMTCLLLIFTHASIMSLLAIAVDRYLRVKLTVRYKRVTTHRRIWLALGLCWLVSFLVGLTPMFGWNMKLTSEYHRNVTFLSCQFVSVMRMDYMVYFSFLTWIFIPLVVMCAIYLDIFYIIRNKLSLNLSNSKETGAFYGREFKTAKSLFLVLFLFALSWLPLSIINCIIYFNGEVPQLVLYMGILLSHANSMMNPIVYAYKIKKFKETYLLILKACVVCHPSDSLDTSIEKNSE
T1 sequence (P29274 whole entry): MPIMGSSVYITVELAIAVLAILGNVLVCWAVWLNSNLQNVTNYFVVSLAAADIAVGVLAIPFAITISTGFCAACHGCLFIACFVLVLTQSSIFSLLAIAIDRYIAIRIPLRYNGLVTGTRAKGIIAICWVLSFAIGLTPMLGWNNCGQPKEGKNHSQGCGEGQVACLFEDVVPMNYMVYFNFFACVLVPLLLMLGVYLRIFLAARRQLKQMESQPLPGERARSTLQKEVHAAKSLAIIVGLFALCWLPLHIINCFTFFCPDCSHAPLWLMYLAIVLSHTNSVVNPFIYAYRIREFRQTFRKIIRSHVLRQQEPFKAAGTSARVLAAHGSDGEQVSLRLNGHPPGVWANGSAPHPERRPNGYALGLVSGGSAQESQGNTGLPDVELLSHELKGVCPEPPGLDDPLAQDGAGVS
Sequence of mA2a (Q60613 whole entry): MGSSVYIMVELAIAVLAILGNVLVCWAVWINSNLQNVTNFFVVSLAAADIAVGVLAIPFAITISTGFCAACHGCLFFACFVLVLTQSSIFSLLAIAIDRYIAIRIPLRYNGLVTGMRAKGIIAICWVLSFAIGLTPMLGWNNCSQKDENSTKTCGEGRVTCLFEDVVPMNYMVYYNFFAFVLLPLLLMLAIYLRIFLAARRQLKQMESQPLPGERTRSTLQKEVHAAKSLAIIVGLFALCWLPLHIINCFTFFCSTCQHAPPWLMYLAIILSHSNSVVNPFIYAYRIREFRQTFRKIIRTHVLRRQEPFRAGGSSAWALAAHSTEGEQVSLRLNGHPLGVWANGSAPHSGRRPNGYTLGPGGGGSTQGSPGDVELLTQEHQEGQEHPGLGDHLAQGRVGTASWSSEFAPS
T2 sequence (P30542 whole entry): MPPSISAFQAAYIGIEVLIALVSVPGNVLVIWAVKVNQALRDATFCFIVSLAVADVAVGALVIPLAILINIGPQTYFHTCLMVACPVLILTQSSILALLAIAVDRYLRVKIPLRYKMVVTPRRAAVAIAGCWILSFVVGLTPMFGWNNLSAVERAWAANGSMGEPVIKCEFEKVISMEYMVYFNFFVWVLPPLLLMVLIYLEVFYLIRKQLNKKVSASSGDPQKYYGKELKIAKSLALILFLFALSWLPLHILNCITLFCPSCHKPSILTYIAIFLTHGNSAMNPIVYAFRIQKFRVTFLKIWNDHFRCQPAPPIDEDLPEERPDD
T3 sequence (P29275 whole entry): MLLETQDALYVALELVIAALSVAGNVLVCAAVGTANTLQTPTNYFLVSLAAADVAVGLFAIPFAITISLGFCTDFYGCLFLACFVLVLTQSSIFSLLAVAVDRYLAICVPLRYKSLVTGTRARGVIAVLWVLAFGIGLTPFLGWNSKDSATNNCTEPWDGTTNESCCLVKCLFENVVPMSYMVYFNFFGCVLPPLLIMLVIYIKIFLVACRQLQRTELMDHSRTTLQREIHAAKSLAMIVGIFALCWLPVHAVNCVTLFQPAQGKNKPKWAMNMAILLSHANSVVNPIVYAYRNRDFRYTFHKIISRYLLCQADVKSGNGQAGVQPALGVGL

SMILES	IC50 (hA2a [1]) [nM]	IC50 (hA1 [2]) [nM]	IC50 (hA2b [3]) [nM]	IC50 (hA3 [4]) [nM]	IC50 (hA2a [5]) [nM]	IC50 (hA2b [6]) [nM]	IC50 (mA2a) [nM]	IC50 (hA1 [7]) [nM]	IC50 (hA3 [8]) [nM]
CN(C)c1cc(-c2c(-c3ccc(F)cc3)nc(N)n3nc(Cc4c(F)cccc4F)nc23)ccn1 [Example 10, 2-(2,6-difluorobenzyl)-8-(2-(dimethylamino)pyridin-4-yl)-7-(4-fluorophenyl)-[l,2,4]triazolo [l,5-c]pyrmidin-5-amine]	0.9	2.3	0.1	4770	0.2	4.4	0.4	42	> 10000
CC(C)n1cc(-c2c(-c3ccc(F)cc3)nc(N)n3nc(Cc4ncccc4F)nc23)ccc1=O [Example 55, 5-(5-amino-7-(4-fluorophenyl)-2-((3-fluoropyridin-2-yl)methyl)-[1,2,4]triazolo[1,5-c]pyrimidin-8-yl)-1-isopropylpyridin-2(1H)-one]	4	0.1	2.8	7290	0.7	101	0.8	13	–
CCn1cc(-c2c(-c3ccc(F)cc3)nc(N)n3nc(Cc4ncccc4F)nc23)ccc1=O [Example 34, 5-(5-amino-7-(4-fluorophenyl)-2-((3-fluoropyridin-2-yl)methyl)-[1,2,4]triazolo[1,5-c]pyrimidin-8-yl)-1-ethylpyridin-2(1H)-one]	2.8	0.8	0.4	10000	2.1	58	3.4	12	–
Cc1cc(-c2c(-c3ccc(F)cc3)nc(N)n3nc(Cc4c(F)cccc4F)nc23)c(C)cn1 [Example 13, 2-[(2,6-difluorophenyl)methyl]-8-(2,5-dimethylpyridin-4-yl)-7-(4-fluorophenyl)-[1,2,4]triazolo[1,5-c]pyrimidin-5-amine]	–	–	–	–	11	81	56	153	> 10000
Cc1cc(-c2c(-c3ccc(F)cc3)nc(N)n3nc(Cc4cccc(Cl)c4)nc23)ccn1 [Example 8, 2-[(3-chlorophenyl)methyl]-7-(4-fluorophenyl)-8-(2-methylpyridin-4-yl)-[1,2,4]triazolo[1,5-c]pyrimidin-5-amine]	–	–	–	–	59	2950	98	162	> 10000
Cc1cc(-c2c(-c3ccc(F)cc3)nc(N)n3nc(Cc4nccs4)nc23)ccn1 [Example 11, 7-(4-fluorophenyl)-8-(2-methylpyridin-4-yl)-2-(thiazol-2-ylmethyl)-[1,2,4]triazolo[1,5-c]pyrimidin-5-amine]	–	–	–	–	34	219	78	9.7	> 10000
Cn1cc(-c2c(-c3ccc(F)cc3)nc(N)n3nc(Cc4ncccc4F)nc23)ccc1=O [Example 1, 5-(5-amino-7-(4-fluorophenyl)-2-((3-fluoropyridin-2-yl)methyl)-[1,2,4]triazolo[1,5-c]pyrimidin-8-yl)-1-methylpyridin-2(1H)-one]	2.3	1.1	2.3	2870	4.7	117	10	8.5	> 10000
Cc1cc(-c2c(-c3ccc(F)cc3)nc(N)n3nc(Cc4ncccc4F)nc23)ccn1 [Example 2, 7-(4-fluorophenyl)-2-((3-fluoropyridin-2-yl)methyl)-8-(2-methylpyridin-4-yl)-[l,2,4]triazolo[l,5-c]pyrmidin-5-amine]	–	–	–	–	59	73	59	23	> 10000
Cc1cc(-c2c(-c3ccc(F)cc3)nc(N)n3nc(Cc4ncccc4F)nc23)cc(C)n1 [Example 14]	–	–	–	–	6.9	2240	18	97	> 10000
Cn1cc(-c2c(-c3ccc(F)cc3)nc(N)n3nc(Cc4c(F)cccc4F)nc23)ccc1=O [Example 9, 5-(5-amino-2-(2,6-difluorobenzyl)-7-(4-fluorophenyl)-[1,2,4]triazolo[1,5-c]pyrimidin-8-yl)-l-methylpyridin-2(1H)-one]	2.1	0.2	–	–	0.6	56	0.8	20	> 10000
Cn1cc(-c2c(-c3ncco3)nc(N)n3nc(Cc4ncccc4F)nc23)ccc1=O [Example 21, 5-(5-amino-2-((3-fluoropyridin-2-yl)methyl)-7-(oxazol-2-yl)-[1,2,4]triazolo[1,5-c]pyrimidin-8-yl)-1-methylpyridin-2(1H)-one]	20	43	–	–	36	270	41	113	> 10000
Cc1cc(-c2c(-c3ccc(F)cc3)nc(N)n3nc(C(C)c4c(F)cccc4F)nc23)ccn1 (stereo not shown) [Example 12, 2-[1-(2,6-difluorophenyl)ethyl]-7-(4-fluorophenyl)-8-(2-methylpyridin-4-yl)-[1,2,4]triazolo[1,5-c]pyrimidin-5-amine]	–	–	–	–	46	5000	316	214	> 10000
Nc1nc(-c2ccc(F)cc2)c(-c2ccnnc2)c2nc(Cc3c(F)cccc3F)nn12 [Example 6, 2-(2,6-difluorobenzyl)-7-(4-fluorophenyl)-8-(pyridazin-4-yl)-[1,2,4]triazolo[1,5-c]pyrimidin-5-amine]	–	–	–	–	63	17	182	21	> 10000
Cn1cc(-c2c(-c3ccc(F)cc3)nc(N)n3nc(Cc4ncccc4OC(F)F)nc23)ccc1=O [Example 20, 5-(5-amino-2-[[3-(difluoromethoxy)pyridin-2-yl]methyl]-7-(4-fluorophenyl)-[1,2,4]triazolo[1,5-c]pyrimidin-8-yl)-1-methyl-1,2-dihydropyridin-2-one]	2.8	4	8.7	1070	3.5	84	4.9	34	> 10000
Cc1cc(-c2c(-c3ccc(F)cc3)nc(N)n3nc(Cc4ncccc4F)nc23)cc(Cl)n1 [Example 18, 8-(2-chloro-6-methylpyridin-4-yl)-7-(4-fluorophenyl)-2-((3-fluoropyridin-2-yl)methyl)-[l,2,4]triazolo[1,5-c]pyrimidin-5-amine]	–	–	–	–	1.2	511	9.6	49	> 10000
